Experimental data: ChEMBL document CHEMBL5126646, “Synthesis and Biological Evaluation of Aurachin D Analogues as Inhibitors of Mycobacterium tuberculosis Cytochrome bd Oxidase” (ACS Med Chem Lett, 2022)
Values after ≈ are worked out from the molar mass of the structure shown.

What was measured:
[1] = (§1) Inhibition of Mycobacterium tuberculosis cytochrome bd oxidase over expressed in inverted membrane vesicles of Mycobacterium smegmatis deltacydAB assessed as reduction in malate-induced increase in oxygen consumption rate measured after 60 secs in presence of cytochrome bcc-aa3 complex inhibitor TB47 by fluorespirometry; assay type: cell membranes, Membrane vesicle
[2] = tested on: Mycobacterium tuberculosis; assay: Antitubercular activity against Mycobacterium tuberculosis mc26230 incubated for 7 days; assay type: functional; conditions: mc26230, 168 h, time 7 day
[3] = tested on: Mycolicibacterium smegmatis; assay: Growth inhibition of Mycobacterium smegmatis mc2155 harboring deltaqcr mutant incubated for 48 hrs under shaking condition; assay type: functional
[4] = Growth inhibition of nonpathogenic Mycobacterium smegmatis mc2155 incubated for 48 hrs under shaking condition; conditions: mycolicibacterium smegmatis
[5] = as §1, with “smegmatis mc2155” for “smegmatis”, “at 120” for “after 60”; assay type: cell membranes, Membrane vesicle

COc1ccc2[nH]c(C)c(C/C=C(\C)CC/C=C(\C)CCC=C(C)C)c(=O)c2c1
IC50 [1]: 0.67 µM | MIC [2]: 256 µM (≈ 101 µg/mL) | MIC [3]: > 512 µM | MIC [4]: > 512 µM

CC(C)=CCC/C(C)=C/CC/C(C)=C/Cc1c(C)[nH]c2ccc(F)cc2c1=O
IC50 [1]: 0.25 µM | MIC [2]: 8 µM (≈ 3.05 µg/mL) | MIC [3]: > 512 µM | MIC [4]: > 512 µM

CC(C)=CCC/C(C)=C/CC/C(C)=C/Cc1c(C)[nH]c2ccc(N)cc2c1=O
IC50 [1]: 5 µM | MIC [2]: > 512 µM | MIC [3]: > 512 µM | MIC [4]: > 512 µM

CC(C)=CCC/C(C)=C/CC/C(C)=C/Cc1c(C)[nH]c2cc(C(F)(F)F)ccc2c1=O
IC50 [1]: > 1000 µM | MIC [2]: > 512 µM | MIC [3]: > 512 µM | MIC [4]: > 512 µM

CC(C)=CCC[C@@H](C)CCc1c(C)[nH]c2cc(N)ccc2c1=O
IC50 [1]: 52 µM | MIC [2]: 512 µM (≈ 160 µg/mL) | MIC [3]: > 512 µM | MIC [4]: > 512 µM

CC(C)=CCC/C(C)=C/CC/C(C)=C/Cc1c(C)[nH]c2ccc(O)cc2c1=O
IC50 [1]: 0.59 µM | MIC [2]: 256 µM (≈ 97.2 µg/mL) | MIC [3]: > 512 µM | MIC [4]: > 512 µM

CC(C)=CCC/C(C)=C/CC/C(C)=C/Cc1c(C)[nH]c2cc(C)ccc2c1=O
IC50 [1]: 31 µM | MIC [2]: > 512 µM | MIC [3]: > 512 µM | MIC [4]: > 512 µM

CC(C)=CCC/C(C)=C/CC/C(C)=C/Cc1c(C)[nH]c2cc(N)ccc2c1=O
IC50 [1]: 1.8 µM | MIC [2]: > 512 µM | MIC [3]: > 512 µM | MIC [4]: > 512 µM

CC(C)=CCC/C(C)=C/CC/C(C)=C/Cc1c(C)[nH]c2ccc([N+](=O)[O-])cc2c1=O
IC50 [1]: 1.8 µM | MIC [2]: > 512 µM | MIC [3]: > 512 µM | MIC [4]: > 512 µM

CC(C)=CCC/C(C)=C/Cc1c(C)[nH]c2ccc(N)cc2c1=O
IC50 [1]: 33 µM | MIC [2]: > 512 µM | MIC [3]: > 512 µM | MIC [4]: > 512 µM

CC(C)=CCC/C(C)=C/CC/C(C)=C/Cc1c(C)[nH]c2cccc(O)c2c1=O
IC50 [1]: 0.61 µM | MIC [2]: 256 µM (≈ 97.2 µg/mL) | MIC [3]: > 512 µM | MIC [4]: > 512 µM

CC(C)=CCC/C(C)=C/CC/C(C)=C/Cc1c(C)[nH]c2cc(F)ccc2c1=O
IC50 [1]: 0.37 µM | MIC [2]: 256 µM (≈ 97.7 µg/mL) | MIC [3]: > 512 µM | MIC [4]: > 512 µM

CC(C)=CCc1c(C)[nH]c2ccccc2c1=O
IC50 [1]: 5.8 µM | MIC [2]: 32 µM (≈ 7.27 µg/mL) | MIC [3]: > 512 µM | MIC [4]: > 512 µM

CC(C)=CCC/C(C)=C/CC/C(C)=C/Cc1c(C)[nH]c2cc(Cl)ccc2c1=O
IC50 [1]: > 1000 µM | MIC [2]: > 512 µM | MIC [3]: > 512 µM | MIC [4]: > 512 µM

Cc1[nH]c2ccccc2c(=O)c1Cc1ccccc1
IC50 [1]: 4.8 µM | MIC [2]: 32 µM (≈ 7.98 µg/mL) | MIC [3]: > 512 µM | MIC [4]: > 512 µM

CC(C)=CCC/C(C)=C/CC/C(C)=C/Cc1c(C)[nH]c2ccc(Cl)cc2c1=O
IC50 [1]: 9 µM | MIC [2]: > 512 µM | MIC [3]: > 512 µM | MIC [4]: > 512 µM

CC(C)=CCC/C(C)=C/Cc1c(C)[nH]c2ccccc2c1=O
IC50 [1]: 1.1 µM | MIC [2]: > 512 µM | MIC [3]: > 512 µM | MIC [4]: > 512 µM

CC(C)=CCC/C(C)=C/CC/C(C)=C/Cc1c(C)[nH]c2cc(Cl)cc(Cl)c2c1=O
IC50 [1]: 4.6 µM | MIC [2]: > 512 µM | MIC [3]: > 512 µM | MIC [4]: > 512 µM

CC(C)=CCC/C(C)=C/CC/C(C)=C/Cc1c(C)[nH]c2ccccc2c1=O [AURACHIN D]
MIC [2]: 8 µM (≈ 2.91 µg/mL) | MIC [3]: > 512 µM | IC50 [5]: 0.15 µM | MIC [4]: > 512 µM

CC(C)=CCC/C(C)=C/CC/C(C)=C/Cc1c(C)[nH]c2ccc(N=[N+]=[N-])cc2c1=O
IC50 [1]: 4.7 µM | MIC [2]: 512 µM (≈ 207 µg/mL) | MIC [3]: > 512 µM | MIC [4]: > 512 µM

COc1cccc2c(=O)c(C/C=C(\C)CC/C=C(\C)CCC=C(C)C)c(C)[nH]c12
IC50 [1]: 1.3 µM | MIC [2]: 64 µM (≈ 25.2 µg/mL) | MIC [3]: > 512 µM | MIC [4]: > 512 µM

COc1cccc2[nH]c(C)c(C/C=C(\C)CC/C=C(\C)CCC=C(C)C)c(=O)c12
IC50 [1]: 0.36 µM | MIC [2]: 32 µM (≈ 12.6 µg/mL) | MIC [3]: > 512 µM | MIC [4]: > 512 µM

CC(C)=CCC/C(C)=C/CC/C(C)=C/Cc1c(C)[nH]c2cccc(F)c2c1=O
IC50 [1]: 7.5 µM | MIC [2]: 256 µM (≈ 97.7 µg/mL) | MIC [3]: > 512 µM | MIC [4]: > 512 µM

CC(C)=CCC[C@@H](C)CCc1c(C)[nH]c2ccccc2c1=O
IC50 [1]: 0.35 µM | MIC [2]: 4 µM (≈ 1.19 µg/mL) | MIC [3]: > 512 µM | MIC [4]: > 512 µM

COc1ccc2c(=O)c(C/C=C(\C)CC/C=C(\C)CCC=C(C)C)c(C)[nH]c2c1
IC50 [1]: 0.13 µM | MIC [2]: > 512 µM | MIC [3]: > 512 µM | MIC [4]: > 512 µM
